Laboratory results reported in US10391079B2, “Methods of diagnosing and treating Alzheimer's disease with S-equol” (Ausio Pharmaceuticals, LLC, priority 2016, dated 2019).
“Also recorded” adds a separate entry of the source.

Legend:
[1] = test system: Alzheimer's disease subjects; experiment: Montreal Cognitive Assessment (MoCA) in single-blind S-equol pilot study; format: in vivo, human; conditions: for MoCA Visit 3 (Mean ± SEM): wash-out evaluation, 2 weeks placebo after S-equol; for percent MoCA score change between visit 1 and visit 2: FIG. 1
Experimental: Alzheimer's disease subjects were recruited through the University of Kansas Alzheimer's Disease Center (ADC). The ADC maintains a clinical cohort whose routine characterizations include Clinical Dementia Rating (CDR) scale ratings, uniform data set (UDS) cognitive testing, and APOE genotyping. The diagnosis of clinic cohort participants is primarily based on CDR and UDS data, and is determined through a consensus conference that includes subspecialty-trained cognitive neurologists and an expert neuropsychologist. Subjects diagnosed with Alzheimer's disease further meet current criteria for that diagnosis in McKhann et al., Alzheimers Dement, 7 (2011) 263-269.
To qualify for the study, participants had to be female with very mild (CDR 0.5) or mild (CDR 1) Alzheimer's disease. Each participant was required to have a study partner. As part of the informed consent process, the subjects and study partners were told that during different parts of the study the participants would receive either an S-equol capsule or an inert placebo. The placebo could not be distinguished from the S-equol by sight, touch, or taste so although the investigators knew whether participants at any given point were receiving S-equol or placebo, the participants themselves were blind to the actual treatment. The S-equol and placebo capsule were provided by Ausio Pharmaceuticals, LLC (Cincinnati, Ohio).
(§1) Subjects received a two week supply of medication, which uniformly consisted of placebo, and were instructed to take the study medication twice a day. At the end of this initial two-week period participants returned to the ADC clinical trials unit for their first study visit (visit 1; lead-in evaluation). Visit 1 procedures included an assessment of study medication compliance, vital signs, a query for perceived side effects, the Montreal Cognitive Assessment (MoCA), and a 40 ml phlebotomy; the blood was used to measure platelet mitochondria cytochrome oxidase (COX) and citrate synthase (CS) activities. At the completion of this visit the next two weeks of study medication was dispensed, which uniformly consisted of 10 mg S-equol capsule.
(§2) At the end of this second two-week period participants returned to the ADC clinical trials unit for their second study visit (visit 2; active treatment evaluation). The same procedures were performed during the lead-in evaluation and dispensed the next two weeks of study medication, which at this point uniformly consisted of placebo.
(§3) At the end of this final two-week period the participants returned to the ADC clinical trials unit for their third study visit (visit 3; wash-out evaluation). The lead-in and active treatment evaluation procedures were performed again, which completed participation in this single-blind study.
(§4) Secondary outcomes included a safety analysis of the S-equol 10 mg twice per day dose and an analysis of MoCA scores.

cytochrome oxidase (COX) = conditions: brains from ovariectomized mice; cited from earlier work
[2] = test system: platelet mitochondria cytochrome oxidase (COX); experiment: Platelet mitochondria COX activity referenced to CS activity (COX/CS) in S-equol pilot study; format: in vivo, human; conditions: for COX/CS Visit 3 (Mean ± SEM): wash-out, 2 weeks placebo after S-equol
Experimental: as §1, §2, §3
Forty milliliter blood samples were collected in tubes containing acid-citrate-dextrose (ACD) tubes as an anticoagulant, and maintained at room temperature. Within 24 hours of phlebotomy the blood was processed by the ADC Mitochondrial Genomics and Metabolism Core. To initiate the processing procedure, platelets were isolated by centrifugation and enriched mitochondrial fractions prepared using previously described methods. Such procedures involved nitrogen cavitation to rupture platelets followed by centrifugation to collect mitochondria.
The protein concentrations of the enriched mitochondrial fractions were measured using a BCA protein assay kit (BioRad, Hercules, Calif.). COX Vmax activity was determined as a pseudo first order-rate constant (sec-1/mg) by measuring the oxidation of reduced cytochrome c at 550 nm.
In addition to measuring COX activity, each sample's citrate synthase (CS) Vmax activity (nmol/min/mg) was measured. This assay was performed spectrophotometrically by following the formation of 5-thio-2-nitrobenzoate (412 nm) following the addition of 100 μM oxaloacetate at 30° C. In addition to referencing COX activities to total protein, potential inter-sample differences in mitochondrial mass was corrected by referencing the COX activity for each sample to its corresponding CS activity.
An S-equol-associated modification of platelet mitochondria COX activity was designated as the primary outcome measure. To determine whether an S-equol-associated change in platelet mitochondrial COX activity occurred for an individual participant, an anticipated pattern of response analysis was used. It was expected that platelet mitochondria COX activity would increase in response to the active treatment.
Participants were identified as responding (i.e., increasing COX activity in response to treatment, classified as “successes” or “responders”) if the individual change (slope) from the lead-in measurement to the active treatment measurement was greater than the change (slope) from the active-treatment measurement to the wash-out (visit 3) measurement.

[3] = test system: Alzheimer's disease patients; experiment: Safety analysis of S-equol 10 mg twice per day; format: in vivo, human; conditions: S-equol 10 mg twice per day for two weeks
Experimental: as §1, §4

In the case of `Oc1ccc([C@H]2COc3cc(O)ccc3C2)cc1` [S-equol], the “MoCA Visit 3 (Mean ± SEM)” value ([1]; APOE4 carriers, 8 participants) is reported as 15.9 ± 2.7, the “percent MoCA score change between visit 1 and visit 2” value ([1]; APOE4 carriers) is reported as “trended in a downward direction” and the “MoCA Visit 3 (Mean ± SEM)” value ([1]; APOE4 non-carriers, 7 participants) is reported as 12.4 ± 1.6. The “percent MoCA score change between visit 1 and visit 2” value ([1]; APOE4 non-carriers) was “in an upward direction”, the “MoCA Visit 3 (Mean ± SEM)” value ([1]; Total, 15 participants) was 14.3 ± 1.6 and the “differences in mean MoCA scores between visits, or between APOE4 carriers and non-carriers” value ([1]; visits 1-3) was “No significant differences were observed”. The COX1 protein levels (cytochrome oxidase (COX)) was “increase”, the “cytochrome oxidase (COX) activity” value (cytochrome oxidase (COX)) was “increase” and the COX/CS Visit 3 (Mean ± SEM) ([2]; APOE4 carriers, 8 participants) was 4.4e-05. For the same molecule, the COX/CS Visit 3 (Mean ± SEM) ([2]; APOE4 non-carriers, outlier excluded, 6 participants) was 4.1e-05, the “COX/CS Visit 3 (Mean ± SEM)” value ([2]; APOE4 non-carriers, outlier included, 7 participants) was 5.1E−05 ± 1.1E−05 and the COX/CS Visit 3 (Mean ± SEM) ([2]; Total, outlier excluded, 14 participants) was 4.2e-05. For the same molecule, the COX/CS Visit 3 (Mean ± SEM) ([2]; Total, outlier included, 15 participants) was 4.7e-05, the “percent COX/CS change between visit 1 and visit 2” value ([2]; non-APOE4 carriers versus APOE4 carriers, FIG. 3) was “trended higher in the non-APOE4 carriers than it did in the APOE4 carriers” and the “differences in mean COX/CS values between visits, or between APOE4 carriers and non-carriers” value ([2]; visits 1-3) was “No significant differences were observed”. For the same molecule, the adverse events [3] was “No treatment-related adverse events (either serious or non-serious) were observed; also recorded: No adverse events occurred”.
